Like-named read-outs stand apart in the source and are kept apart here.
Legend:
CK1δ/ε = conditions: read-out: IC50 as CK1δ/ε inhibitor; cited from earlier work
CDK5 = tested on: CDK5; design: method as in PMID 18698753, PMID 29289448; conditions: cited from earlier work
truncated CK1δ = biological target: T1, truncated CK1δ (Homo sapiens, UniProt P48730); assay: CK1δ luminescent kinase assay (Kinase-Glo); format: biochemical; conditions: for remaining activity at 10 µM / remaining activity at 40 µM: CK1δ residual activity; for remaining activity at 10 µM: compound at 10 μM, read-out: % Residual Activity at 10 μM ± sd; for remaining activity at 40 µM: compound at 40 μM, read-out: % Residual Activity at 40 μM ± sd; for IC50: truncated CK1δ, ATP 2 μM, read-out: IC50 (μM), CK1δ inhibition
T1 construct: recombinant human, GST-tagged, aa 1-294; GST; purchased Merck Millipore, Merck KGaA, Darmstadt, Germany
T1 sequence (P48730 1-294): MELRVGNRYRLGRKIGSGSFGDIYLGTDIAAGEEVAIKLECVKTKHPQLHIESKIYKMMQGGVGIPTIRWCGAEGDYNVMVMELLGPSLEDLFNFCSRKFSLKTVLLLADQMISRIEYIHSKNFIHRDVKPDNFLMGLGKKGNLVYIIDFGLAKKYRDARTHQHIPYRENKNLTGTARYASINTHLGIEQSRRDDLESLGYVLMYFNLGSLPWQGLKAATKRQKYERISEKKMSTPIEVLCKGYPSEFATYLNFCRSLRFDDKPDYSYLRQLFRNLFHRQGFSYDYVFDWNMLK
Description: Luminescent assays were performed in white 96-well plates in a 40 μL final volume with buffer containing 50 mM HEPES (pH 7.5), 1 mM EDTA, 1 mM EGTA, and 15 mM MgCl2. In a typical assay, 10 μL of inhibitor solution (desired concentrations were obtained by diluting a starting 10 mM solution in DMSO) and 10 μL of enzyme solution were added to the well, followed by 20 μL of assay buffer containing casein substrate (Sigma-Aldrich, Merck KGaA, Darmstadt, Germany, casein solution from bovine milk, 5% in water) and ATP, at a final concentration of 0.05% and 2 μM, respectively. […] After 60 min of incubation at 30 °C, the enzymatic reactions were stopped with the addition of 40 μL of KinaseGlo reagent. […] Data were analyzed using Excel and GraphPad Prism software (version 8.0).

human recombinant A2AAR [1] = biological target: T2, human recombinant A2AAR (Homo sapiens, UniProt P29274); conditions: read-out: KiA2AAR; cited from earlier work
T2 construct: expressed in transfected cells; host or cells: CHO cells (membranes)

human recombinant A1AR = biological target: T3, human recombinant A1AR (Homo sapiens, UniProt P30542); assay: [3H]CCPA displacement binding in CHO cell membranes; conditions: mean ± standard error, read-out: KiA1
T3 construct: expressed in transfected cells; host or cells: CHO cells (membranes)
T3 sequence (P30542 1-326): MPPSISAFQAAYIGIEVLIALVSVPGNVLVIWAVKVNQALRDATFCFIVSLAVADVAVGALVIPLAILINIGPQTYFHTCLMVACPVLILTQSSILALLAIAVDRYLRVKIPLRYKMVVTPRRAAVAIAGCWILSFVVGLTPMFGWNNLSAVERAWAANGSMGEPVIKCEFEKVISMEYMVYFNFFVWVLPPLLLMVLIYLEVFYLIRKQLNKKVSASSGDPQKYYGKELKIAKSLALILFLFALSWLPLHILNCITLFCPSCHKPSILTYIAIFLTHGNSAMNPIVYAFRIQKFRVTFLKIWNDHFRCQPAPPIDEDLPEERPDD
Description: (§1) Compounds 5, 6, 8–12, 15–21, and 23–25 were evaluated in binding studies at human recombinant A1, A2A, and A3 ARs, stably transfected in Chinese hamster ovary (CHO) cells. [^3H]CCPA (2-chloro-N^6-cyclopentylAdo), [^3H]NECA (5’-N-ethylcarboxamidoAdo), and [^3H]HEMADO (2-hexynyl-N^6-methylAdo) were used as the, respective, radioligands. All compounds were also tested at the A2BARs by inhibition of NECA-stimulated adenylyl cyclase activity, using the GloSensor cAMP assay, but none of them were active at a concentration up to 30 μM [35]. The results, together with the data of the reference adenine derivative 1, are reported in Table 2 as Ki values in μM (± standard errors). In the table, the IC50 values (μM) of the CK1δ inhibitory activity are also indicated. […] We called the compounds endowed with receptor antagonist behavior combined with an enzyme inhibitory activity “dual anta-inhibitors”.
(§2) All of the pharmacological methods followed the procedures as described earlier. In brief, the membranes for radioligand binding were prepared from CHO cells stably transfected with human adenosine receptor subtypes through two centrifugations at different speeds. The first low-speed […] centrifugation allowed for the removal of cell fragments and nuclei, while the second, performed at high speed (100,000× g), allowed for the precipitation of the crude membrane fractions. The resulting membrane pellet was resuspended in the buffer used for the respective binding experiments, frozen in liquid nitrogen, and stored in aliquots at −80 °C.
(§3) The binding affinity of the novel compounds was evaluated using radioligand competition experiments in CHO cells stably expressing hA1AR, hA2AAR, hA3AR subtypes, as early described. Results were expressed as Ki values (dissociation constants), which were calculated with the program GraphPad (GraphPad Software, San Diego, CA, USA). Each concentration was tested three–five times in duplicate and the values given as the mean ± standard error (S.E.). The potency of compounds at the hA2BAR (expressed on CHO cells) was determined through a GloSensor cAMP Assay.

human recombinant A2AAR [2] = biological target: T2, human recombinant A2AAR; assay: [3H]NECA displacement binding in CHO cell membranes; conditions: mean ± standard error, read-out: KiA2A
Description: as §1, §2, §3

human recombinant A3AR = biological target: T4, human recombinant A3AR (Homo sapiens, UniProt P0DMS8); assay: [3H]HEMADO displacement binding in CHO cell membranes; conditions: mean ± standard error, read-out: KiA3
T4 construct: expressed in transfected cells; host or cells: CHO cells (membranes)
T4 sequence (P0DMS8 1-318): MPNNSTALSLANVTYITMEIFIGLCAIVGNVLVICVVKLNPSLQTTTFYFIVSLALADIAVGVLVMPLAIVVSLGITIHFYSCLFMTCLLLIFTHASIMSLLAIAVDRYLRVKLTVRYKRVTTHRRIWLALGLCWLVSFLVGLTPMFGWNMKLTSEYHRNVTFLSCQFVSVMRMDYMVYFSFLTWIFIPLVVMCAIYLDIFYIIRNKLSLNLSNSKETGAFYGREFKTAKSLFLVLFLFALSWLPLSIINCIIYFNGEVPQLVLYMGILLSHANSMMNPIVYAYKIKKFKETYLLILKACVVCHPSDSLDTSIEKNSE
Description: as §1, §2, §3

hA2AAR = biological target: T5, hA2AAR (Homo sapiens, UniProt P29274); assay: Antagonism of NECA-induced cAMP accumulation in CHO cells, GloSensor cAMP assay; format: cell-based; conditions: CHO cells stably expressing hA2AAR; read-out: IC50, inhibition of NECA effect on cAMP production
T5 construct: expressed in transfected cells; host or cells: CHO cells stably expressing hA2AAR and pGloSensor-22F
Description: In order to confirm the antagonist activity of the dual anta-inhibitors 12 and 17, they were evaluated in a functional assay in CHO cells stably expressing the hA2AAR. Firstly, they were tested alone, and […] in terms of cAMP stimulation was observed. […] Both 12 and 17 were able to inhibit the effect of NECA on cAMP production, thus resulting in A2AAR antagonists.
Functional activity was determined as described earlier. Briefly, cells stably expressing both the hA2A or hA2B AR and the plasmid pGloSensor-22F coding for the biosensor were cultured. This biosensor encodes for a genetically modified form of firefly luciferase into which a cAMP-binding protein moiety was inserted. The desiderate cell number was harvested and incubated for 2 h at r.t., with 3% v/v GloSensor cAMP reagent stock solution, 10% FBS, and 87% CO2 independent medium. Cells were dispensed in the wells of a 384-well plate and the reference agonist NECA or the under-study compounds were added at different concentrations. Since the compounds were unable to stimulate cAMP production, they were studied as antagonists. The antagonist profile was evaluated by assessing the ability to counteract an NECA-induced increase in cAMP accumulation. Responses were expressed as a percentage of the maximal relative luminescence units (RLU). Concentration–response curves were fitted by a nonlinear regression using Prism software. […]

CK1δ = conditions: cited from earlier work
CK1ε = conditions: cited from earlier work

T2 sequence (P29274 whole entry): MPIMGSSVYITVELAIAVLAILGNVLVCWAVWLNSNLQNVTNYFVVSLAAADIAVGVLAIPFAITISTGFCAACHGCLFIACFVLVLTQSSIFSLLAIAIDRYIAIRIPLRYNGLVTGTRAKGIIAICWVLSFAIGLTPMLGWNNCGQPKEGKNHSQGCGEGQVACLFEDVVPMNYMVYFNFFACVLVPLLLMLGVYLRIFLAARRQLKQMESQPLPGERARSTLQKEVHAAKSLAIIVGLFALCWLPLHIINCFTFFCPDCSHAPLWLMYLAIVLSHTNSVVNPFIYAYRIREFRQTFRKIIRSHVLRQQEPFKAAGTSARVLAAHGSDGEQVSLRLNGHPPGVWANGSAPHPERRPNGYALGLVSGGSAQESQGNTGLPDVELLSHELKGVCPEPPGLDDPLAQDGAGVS
T5 sequence (P29274 whole entry): as above

remaining activity at 10 µM (truncated CK1δ) [%]	remaining activity at 40 µM (truncated CK1δ) [%]	IC50 (truncated CK1δ) [µM]	Ki (human recombinant A1AR) [nM]	Ki (human recombinant A2AAR [2]) [nM]	Ki (human recombinant A3AR) [nM]	IC50 (hA2AAR) [nM]	SMILES	IC50 (CK1δ/ε) [nM]	further results
–	–	–	–	–	–	–	CC[C@H](CO)Nc1nc(Nc2ccc(-c3cccnc3)cc2)c2ncn(C(C)C)c2n1 [(R)-DRF053]	14	IC50 (CDK5): 80 nM
27 ± 4	19 ± 9.4	1.75 ± 0.2	3340 ± 658	123 ± 2	2880 ± 695	418 ± 98	CN(C)c1nc(N)c2ncn(C3CCCC3)c2n1 [Compound 12, 9-Cyclopentyl-N^2,N^2-dimethyl-9H-purine-2,6-diamine]	–	–
34 ± 5	22 ± 1	0.59 ± 0.2	2900 ± 648	76 ± 17	1150 ± 107	69 ± 18	CN(C)c1nc(NCc2nc3ccccc3[nH]2)c2ncn(C3CCCC3)c2n1 [Compound 17, N^6-((1H-benzo[d]imidazol-2-yl)methyl)-9-cyclopentyl-N^2,N^2-dimethyl-9H-purine-2,6-diamine]	–	–
–	–	–	–	–	–	–	Fc1cccc(-n2cnc3c(NCc4nc5ccc(Cl)cc5[nH]4)nc(N4CCNCC4)nc32)c1 [SR-2890]	4	–
–	–	–	–	–	–	–	c1ccc2[nH]c(CNc3nc(N4CCOCC4)nc4c3ncn4-c3ccsc3)nc2c1 [SR-653234]	–	IC50 (CK1δ): 160 nM; IC50 (CK1ε): 540 nM

SMILES	remaining activity at 10 µM (truncated CK1δ) [%]	remaining activity at 40 µM (truncated CK1δ) [%]	IC50 (truncated CK1δ) [µM]	Ki (human recombinant A1AR) [nM]	Ki (human recombinant A2AAR [2]) [nM]	Ki (human recombinant A3AR) [nM]	IC50 (hA2AAR) [nM]	IC50 (CK1δ/ε) [nM]	further results
CCn1cnc2c(N)nc(Cl)nc21 [Compound 3]	71	41	> 10	–	–	–	–	–	Ki (human recombinant A2AAR [1]): 3000 nM

Reference: publication PMC9960553, ““Dual Anta-Inhibitors” of the A2A Adenosine Receptor and Casein Kinase CK1delta: Synthesis, Biological Evaluation, and Molecular Modeling Studies” (Pharmaceuticals, 2023)
